From patent US4064254A, “Substituted piperidines therapeutic process and compositions” (Mead Johnson & Company, priority 1976, dated 1977)
Values after ≈ are worked out from the molar mass of the structure shown.

Key:
[1] = tested on: rabbit atrium; assay: in vitro rabbit atrium test (refractory period); format: cell-based; details: Oryctolagus cuniculus; rabbit left atrium, 30° C., stimulated at 30 per minute; read-out: EC50 (50% of maximal increase in refractory period)
Method: In this test, the left atrium is placed in Chenoweth's solution warmed to 30° C. and irrigated with 95% oxygen: 5% carbon dioxide. The lower end of the atrium is attached to a small hook fixed in the bath and the upper end is connected to a transducer to record contractile activity. […] A test compound is introduced into the bath and the test repeated after a 5 minute interval. A dose-response relationship is obtained by additional doses of the test compound. […] This value is designated the EC50.

[2] = tested on: serotonin (rat uterus); assay: antiserotonin activity in the rat uterus (spasmogenic effect of serotonin); format: cell-based; details: rat uterine horn, 30° C., 0.4 microgram per milliliter of serotonin; read-out: IC50 (decrease of spasmogenic effect of serotonin by 50%)
Method: According to this test one of the uterine horns of a rat uterus is suspended in oxygenated salt solution at 30° C. The contractions of this tissue are then recorded and varying concentrations of the test compound introduced into the bath in order to determine the concentration that would decrease the spasmogenic effect of 0.4 microgram per milliliter of serotonin by 50%. This value is designated the IC50.

[3] = tested on: aconitine induced arrhythmia in the dog; assay: aconitine induced atrial arrhythmia in the anesthetized dog, intravenous; format: in vivo; details: Canis lupus familiaris, read-out: effective dose restoring normal cardiac rhythm, aconitine induced arrhythmia
Source text: (§1) The chest of an anesthetized dog is opened in the midline and the right and left atrial appendages exposed through small slits in the pericardium. Bypolar recording electrodes are affixed to the atrial surfaces and a 4 × 4 mm. piece of clean cloth is fixed to the surface of the right auricular appendage. Control recordings are made of various heart functions including femoral arterial blood pressure and right and left atrial electrograms. Atrial arrhythmia is then induced by placing 3-5 drops of a solution of aconitine on the cloth which is fixed to the right atrium. […] Throughout the experiment, fresh aconitine is (2-3 drops) placed on the cloth at 10 minute intervals.

[4] = tested on: aconitine induced arrhythmia in the dog; assay: prevention of aconitine induced arrhythmia in the dog, intraduodenal administration; format: in vivo; details: Canis lupus familiaris, read-out: effective dose in the prevention of aconitine induced arrhythmia
Source text: as §1

[5] = tested on: electrically induced arrhythmia in the dog; assay: electrically induced arrhythmia in the dog; format: in vivo; details: Canis lupus familiaris, iv
[6] = tested on: chloroform induced arrhythmia in the mouse; assay: inhibition of chloroform induced arrhythmia in the mouse (Lawson); format: in vivo; details: ip, intraperitoneal, read-out: ED50, prevention of chloroform induced arrhythmia
Source text: Another in vivo test involves the inhibition of chloroform induced arrhythmia in the mouse according to the method of J. W. Lawson, J. Pharmacol. Exp. Therap., 160, 22 (1968).

[7] = tested on: serotonin in the brain in mice; assay: antiserotonin activity in mice, 5-hydroxytryptophan / monoamine oxidase inhibitor (Corne); format: in vivo; details: Mus musculus
Source text: This test is dependent on the metabolism of 5-hydroxytryptophan to serotonin in the brain in mice which are pretreated with a monamine oxidase inhibitor.

Structure (SMILES) | EC50 [1] | IC50 [2] | minimal effective dose [3] | minimal effective dose [4] | minimal effective dose [5] | ED50 [6] | ED50 ([7]; ip, 1 h, intraperitoneal, 60 minute pretreatment) | ED50 ([7]; sc, 0.5 h, subcutaneous, 30 minute pretreatment) | ED50 ([7]; sc, 1 h, subcutaneous, 60 minute pretreatment)
CN1CCCCC1CCc1ccccc1N (centres unmarked) [2-(o-Aminophenethyl)-1-methylpiperidine, 2-(O-Aminophenethyl)-1-methylpiperidine] | 44 mg/L (≈ 202 µM) |  |  |  |  |  |  |  | 
COc1ccc(C(=O)Nc2ccccc2CCC2CCCCN2C)cc1 (centres unmarked) [4-methoxy-2'-[2-(1-methyl-2-piperidyl)ethyl]benzanilide] | 2.4 mg/L (≈ 6.81 µM) | 0.0046 mg/L (≈ 0.0131 µM) | 0.8 mg/kg | < 10 mg/kg | 1.9 mg/kg | 7.1 mg/kg |  |  | 
CN1CCCCC1CCc1ccccc1NC(=O)C=Cc1ccccc1 (centres unmarked) [2'-[2-(1-Methyl-2-piperidyl)ethyl]-cinnamanilide] |  | 0.00185 mg/L (≈ 0.00531 µM) |  |  |  |  | 21 mg/kg | 4.3 mg/kg | 10 mg/kg
CCN(CC)C(=O)[C@@H]1C=C2c3cccc4[nH]cc(c34)C[C@H]2N(C)C1 [lysergide, reference compound] |  | 0.012 mg/L (≈ 0.0371 µM) |  |  |  |  |  |  | 
C=C[C@H]1C[N@@]2CC[C@H]1C[C@@H]2[C@@H](O)c1ccnc2ccc(OC)cc12 [quinidine, reference compound] | 18 mg/L (≈ 55.5 µM) |  | 6 mg/kg | > 14 mg/kg | 14 mg/kg | 83 mg/kg |  |  | 
